Some test systems named below: ACHN renal; T-47D breast; HCT-116 colon; SK-OV-3 ovarian; HCT-15 colon; NCI-H460 lung; MOLT-4 leukemia; BT-549 breast; COLO 205 colon; OVCAR-5 ovarian; SF-268 CNS; HS 578T breast; IGROV1 ovarian; MDA-MB-435; SW-620 colon; UO-31 renal; SK-MEL-28 melanoma; 786-0 renal.
What all share (test): NCI tumour cell line growth inhibition, 48 h

Molecules are shown by their SMILES.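 Compound exposure: 48 hours, 5 concentrations, 96-well plates. TGI denotes the concentration required for complete inhibition of growth.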

With `O=C1OC(C2(O)OC(=O)c3ccccc32)c2ccccc21` (stereo not drawn), the TGI in the test with ACHN renal, in the test with T-47D breast, in the test with HCT-116 colon, in the test with SK-OV-3 ovarian, with HCT-15 colon and in the test on NCI-H460 lung was over 100 µM in each case. The TGI in the test on MOLT-4 leukemia, in the test with BT-549 breast, in the test with COLO 205 colon, in the test on OVCAR-5 ovarian, in the test on SF-268 CNS and with HS 578T breast was over 100 µM each time. The TGI in the test with IGROV1 ovarian, in the test with MDA-MB-435, in the test with SW-620 colon, with UO-31 renal, in the test on SK-MEL-28 melanoma and in the test on 786-0 renal was over 100 µM each time.

As to `CC1(c2ccc(Cl)s2)CC(c2ccc(Cl)s2)=C(C#N)C(=C(C#N)C#N)N1` (stereo not drawn), the TGI in the test on ACHN renal is 31.4 µM; in the test with T-47D breast, 46.7 µM; with HCT-116 colon, 34.2 µM; in the test with SK-OV-3 ovarian it was 30.5 µM; with HCT-15 colon it was 35.4 µM; with NCI-H460 lung, 82.6 µM. Besides, the TGI in the test on MOLT-4 leukemia was over 100 µM; in the test on BT-549 breast, 45.7 µM; with COLO 205 colon, 61.1 µM; with OVCAR-5 ovarian, 35.8 µM; in the test on SF-268 CNS, 48.9 µM; with HS 578T breast it was 61.6 µM. Also, the TGI in the test with IGROV1 ovarian was determined as 35.3 µM; with MDA-MB-435, 35.1 µM; with SW-620 colon it was 52.4 µM; with UO-31 renal, 34.5 µM; with SK-MEL-28 melanoma, 50.5 µM; in the test with 786-0 renal it was 40.6 µM.

Consider `COc1ccc(N=NC(=Nc2ccc(Cl)cc2)c2ccc(N(CCC#N)CCC#N)cc2)cc1`, for which the TGI was over 100 µM in the test with ACHN renal; 78 µM with T-47D breast; over 100 µM in the test on HCT-116 colon; over 100 µM in the test with SK-OV-3 ovarian; over 100 µM with HCT-15 colon; over 100 µM in the test on NCI-H460 lung. For the same molecule, the TGI in the test on MOLT-4 leukemia was 91.6 µM; in the test on BT-549 breast, 87.3 µM; with COLO 205 colon it was over 100 µM; with OVCAR-5 ovarian, over 100 µM; in the test with SF-268 CNS it was over 100 µM; with HS 578T breast, over 100 µM. The TGI with IGROV1 ovarian, with MDA-MB-435, in the test with SW-620 colon, in the test on UO-31 renal, in the test on SK-MEL-28 melanoma and in the test with 786-0 renal was over 100 µM throughout.

Take `O=C1c2ccccc2C2C1C(c1ccccc1)C1(Cc3ccccc3C1=O)C2c1ccccc1` (stereo not drawn): the TGI with ACHN renal, in the test with T-47D breast, in the test with HCT-116 colon, in the test on SK-OV-3 ovarian, in the test with HCT-15 colon and with NCI-H460 lung was over 100 µM in each case. Besides, the TGI in the test with MOLT-4 leukemia, in the test with BT-549 breast, with COLO 205 colon, with OVCAR-5 ovarian, in the test with SF-268 CNS and in the test with HS 578T breast was over 100 µM each time. The TGI in the test with IGROV1 ovarian, in the test with MDA-MB-435, in the test on SW-620 colon, in the test on UO-31 renal, in the test with SK-MEL-28 melanoma and in the test on 786-0 renal was over 100 µM each time.

As for `Cc1ccnc2[nH]c(-c3ccc(F)cc3)cc(=O)c12`, the TGI with ACHN renal is over 100 µM; in the test with T-47D breast, over 100 µM; in the test on HCT-116 colon, over 100 µM; in the test on SK-OV-3 ovarian, over 100 µM; in the test on HCT-15 colon, over 100 µM; in the test with NCI-H460 lung, over 60.4 µM. Moreover, the TGI with MOLT-4 leukemia was over 100 µM; in the test with BT-549 breast it was over 100 µM; in the test on COLO 205 colon, over 76.8 µM; in the test on OVCAR-5 ovarian, over 100 µM; in the test on SF-268 CNS, over 100 µM; in the test with HS 578T breast, over 100 µM. Also, the TGI with IGROV1 ovarian was over 100 µM; in the test on MDA-MB-435, over 44.8 µM; with SW-620 colon, over 100 µM; in the test with UO-31 renal it was over 100 µM; in the test with SK-MEL-28 melanoma it was over 100 µM; in the test on 786-0 renal, over 100 µM.

In the case of `COc1ccc(C2=C(N)c3ncccc3C2=O)cc1`, the TGI was over 10 µM with ACHN renal; over 100 µM in the test with T-47D breast; over 100 µM with HCT-116 colon; over 100 µM with SK-OV-3 ovarian; over 100 µM in the test with HCT-15 colon; over 100 µM in the test with NCI-H460 lung. In addition, the TGI with MOLT-4 leukemia, in the test with BT-549 breast, in the test with COLO 205 colon, with OVCAR-5 ovarian, in the test with SF-268 CNS and in the test on HS 578T breast was over 100 µM throughout. The TGI in the test with IGROV1 ovarian, with MDA-MB-435, in the test with SW-620 colon, in the test on UO-31 renal, in the test on SK-MEL-28 melanoma and in the test with 786-0 renal was over 100 µM throughout.

The record behind these values is PubChem BioAssay (NCI).
